Data taken from ChEMBL document CHEMBL1201862, “PubChem BioAssay data set” (2004).
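48-hour exposure; five concentrations; linearly interpolated endpoints. Here, GI50 denotes the concentration required for 50% inhibition of growth.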 Active and inactive are the calls of the source. Cut-off read from the data, not from the text of the source: active = GI50 up to about 1.1 µM and inactive = higher.

Key:
Assay in all cases: NCI-60 cell line screen, 48 h
786-0 = system: 786-0
Hs-578T = system: Hs-578T
XF498 = system: XF498
KM-20L2 = system: KM-20L2
M19-MEL = system: M19-MEL
T47D = system: T47D
MDA-MB-435 = system: MDA-MB-435
LXFL 529 = system: LXFL 529
RXF 631 = system: RXF 631

Which results are given for `CCc1cc2c(oc3cc4ccccc4cc32)c(=O)[nH]1`?
GI50 (786-0): > 10 µM (inactive); GI50 (Hs-578T): > 10 µM (inactive)

For `CNC(=O)OCc1nc(SC)n(C)c1CO`, which GI50 (XF498) is on record?
The GI50 was > 100 µM (inactive).

And the GI50 (KM-20L2)?
Its GI50 is > 100 µM (inactive).

What about the GI50 (M19-MEL) of the same compound?
The GI50 was > 100 µM (inactive).

With `c1ccc2c(c1)c1ccccc1n2Cn1c2ccccc2c2ccccc21` as the compound, how does the GI50 (T47D) read?
The GI50 was > 100 µM (inactive).

And the GI50 (MDA-MB-435)?
Its GI50 is > 100 µM (inactive).

For `O=S(=O)(/N=C(\NO)Nc1ccc(Cl)cc1)c1ccc(-c2ccccn2)s1`, which GI50 (T47D) is on record?
The GI50 was 62.4 µM (inactive).

And the GI50 (MDA-MB-435)?
The GI50 was 27.5 µM (inactive).

What about the GI50 (Hs-578T) of the same compound?
The GI50 was 28.8 µM (inactive).

With `COc1ccc(C2c3cc4c(cc3OC(Nc3ccccc3)C2C)OCO4)cc1` (configuration not stated) as the compound, how does the GI50 (T47D) read?
Its GI50 is 36.1 µM (inactive).

And the GI50 (MDA-MB-435)?
Its GI50 is 67.8 µM (inactive).

What about the GI50 (Hs-578T) of the same compound?
Its GI50 is > 100 µM (inactive).

How did the GI50 (XF498) turn out when `CN(C)CCNC(=O)c1cccc2c1Nc1ccccc1S2` was run?
The GI50 was 12.6 µM (inactive).

And the GI50 (KM-20L2)?
Its GI50 is 16.2 µM (inactive).

And the GI50 (M19-MEL)?
Its GI50 is 15.6 µM (inactive).

Which results are given for `CCOC(=O)NC(=O)c1cn(C2CCCCC2)c(=O)n(C)c1=O`?
GI50 (LXFL 529): > 100 µM (inactive); GI50 (RXF 631): > 100 µM (inactive); GI50 (786-0): > 100 µM (inactive); GI50 (KM-20L2): > 100 µM (inactive); GI50 (M19-MEL): > 100 µM (inactive)

For `Cc1c(-c2cc3n(n2)C(c2cccs2)C(C#N)=C(c2ccccc2)N3)c(=O)n(-c2ccccc2)n1C` (configuration not stated), which GI50 (XF498) is on record?
Its GI50 is > 79.4 µM (inactive).

And the GI50 (KM-20L2)?
Its GI50 is 24.9 µM (inactive).

And the GI50 (M19-MEL)?
Its GI50 is > 100 µM (inactive).

Which GI50 (LXFL 529) does the source give for `CCOC(=O)/C=C(\C)c1ccc(C)cc1C` here?
Its GI50 is 14.6 µM (inactive).

And the GI50 (RXF 631)?
The GI50 was > 100 µM (inactive).

What about the GI50 (XF498) of the same compound?
The GI50 was 23.4 µM (inactive).

And the GI50 (KM-20L2)?
The GI50 was > 100 µM (inactive).

Which GI50 (T47D) does the source give for `O=C1CC2(CCC(O)(c3ccccc3)C(C(=O)c3ccccc3)C2)C(=O)c2ccccc2N1` (configuration not stated) here?
Its GI50 is > 100 µM (inactive).

What about the GI50 (MDA-MB-435) of the same compound?
Its GI50 is > 100 µM (inactive).

What about the GI50 (Hs-578T) of the same compound?
Its GI50 is > 100 µM (inactive).

`CNc1cc2c(c3ccccc13)C(CCl)CN2C(=O)c1cc2cc(OC)c(OC)c(OC)c2[nH]1` (configuration not stated) was tested. Which GI50 (T47D) did it give?
Its GI50 is 0.00322 µM (active).

And the GI50 (MDA-MB-435)?
The GI50 was 0.00309 µM (active).

What about the GI50 (786-0) of the same compound?
The GI50 was 0.000809 µM (active).

And the GI50 (Hs-578T)?
Its GI50 is 0.00802 µM (active).

With `OCc1cc2ccncc2c2c1[nH]c1ccccc12` as the compound, how does the GI50 (LXFL 529) read?
The GI50 was 4.58 µM (inactive).

What about the GI50 (XF498) of the same compound?
Its GI50 is 5.25 µM (inactive).
